Source: patent US12492194B2, “HPK1 inhibitors” (Janssen Pharmaceutica NV, priority 2019, dated 2025)

What was measured:
Hpk1 = Hpk1 (Homo sapiens, UniProt Q92918); test: SLP76 phosphorylation assay (SLP76 pS376 in lysates of HEK293 cells engineered to express Hpk1 and SLP76); format: cell-based; conditions: HEK293 cells expressing Hpk1 and SLP76, 4 hours incubation; read-out: pSLP76 (HEK293) (pIC50) (converted)
Method: SLP76 Phosphorylation Assay
Hpk1 inhibition in cells was determined by detection of SLP76 phosphorylation at S376 in lysates from HEK293 cells engineered to express Hpk1 and SLP76. Serial dilutions of test compounds were prepared in cell culture medium and 20 μl was transferred into each well of a 96-well plate containing HEK293 cells in 180 μl of culture medium. After incubation for 4 hours at 37° C./5% CO2, the culture medium was removed, plates were put on ice and cells washed with cold Minimal Essential Medium before lysing in 90 μl of cold Mammalian Protein Extraction Reagent (Thermo Scientific, 78501) for 30 minutes on ice. The cell lysates were transferred to another 96-well plate, centrifuged 10 minutes at 3000 rcf (4° C.) and 30 μl transferred to a 96-well High-bind plate (MSD, L15XB-3). After coating overnight at 4° C., the cell lysate was removed, wells were washed with base buffer (TBS, 0.2% Tween-20), and blocking solution (base buffer containing 3% MSD blocker A) was added to each well for 1 hour at room temperature. The blocking solution was removed, the wells were washed with base buffer, and detection antibody (SLP76 pS376) was added in 25 μl base buffer containing 1% MSD blocker A to each well. After a 2 h incubation at room temperature, the detection antibody was removed, wells were washed four times with base buffer, 25 μl SULFO-TAG labeled goat anti-rabbit secondary antibody (MSD, R32AB-1) in base buffer containing 1% MSD blocker A was added to each well and left for 1 hour at room temperature. Wells were washed 4 times with base buffer, 150 μl Read Buffer T was added to each well, and the plates were read in a Mesoscale plate reader (MSD). IC50 values were determined by curve-fitting the electrochemiluminescent signals obtained from the lysates of HEK293 cells expressing Hpk1 and SLP76 treated with test compounds at various concentrations minus the signal obtained from HEK293 cells expressing SLP76 only.

full-length human Hpk1 = target: T1, full-length human Hpk1 (Homo sapiens, UniProt Q92918); test: HPK1 kinase assay (ADP Glo Kinase Assay); format: biochemical; conditions: full-length human GST-Hpk1, ADP Glo, 75 μM ATP; read-out: Hpk1 biochemical (pIC50) (converted)
T1 construct: A recombinant fusion protein consisting of full-length human Hpk1; GST (N)
T1 sequence (Q92918 whole entry, the tested form may be a part): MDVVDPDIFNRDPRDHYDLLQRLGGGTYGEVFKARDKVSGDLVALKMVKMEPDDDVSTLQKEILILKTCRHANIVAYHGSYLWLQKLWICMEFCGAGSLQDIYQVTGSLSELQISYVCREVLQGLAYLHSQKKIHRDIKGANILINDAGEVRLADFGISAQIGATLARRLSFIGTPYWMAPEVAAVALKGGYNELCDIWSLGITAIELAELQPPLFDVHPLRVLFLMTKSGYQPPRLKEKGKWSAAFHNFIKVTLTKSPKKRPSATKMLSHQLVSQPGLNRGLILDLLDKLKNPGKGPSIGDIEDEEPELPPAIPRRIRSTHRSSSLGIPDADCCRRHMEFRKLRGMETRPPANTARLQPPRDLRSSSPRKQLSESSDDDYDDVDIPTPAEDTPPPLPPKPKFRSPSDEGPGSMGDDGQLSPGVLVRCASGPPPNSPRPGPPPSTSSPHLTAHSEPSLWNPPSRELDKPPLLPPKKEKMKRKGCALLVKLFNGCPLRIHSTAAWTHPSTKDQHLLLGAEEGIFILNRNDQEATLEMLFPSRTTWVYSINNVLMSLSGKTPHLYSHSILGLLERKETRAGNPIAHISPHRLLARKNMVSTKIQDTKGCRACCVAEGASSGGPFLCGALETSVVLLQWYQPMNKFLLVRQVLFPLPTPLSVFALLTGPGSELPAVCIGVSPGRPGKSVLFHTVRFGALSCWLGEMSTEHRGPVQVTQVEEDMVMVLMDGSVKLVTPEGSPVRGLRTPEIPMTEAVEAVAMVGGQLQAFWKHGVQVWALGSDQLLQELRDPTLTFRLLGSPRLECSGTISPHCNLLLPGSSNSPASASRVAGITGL
Method: Pharmacological Part HPK1 Kinase Assay
A recombinant fusion protein consisting of full-length human Hpk1 with an N-terminal Glutatione S-transferase (GST) tag was produced in a baculovirus/insect cell expression system. GST-Hpk1 protein was purified from cell lysates by glutathione sepharose affinity chromatography. Kinase inhibition was determined using the ADP Glo™ Kinase Assay kit (Promega, V9101). Test compounds were prepared by serial dilution in dimethyl sulfoxide (DMSO) and 0.1 μl of each dilution was spotted onto a 384-well white Proxiplate (Perkin Elmer, 6008289). 8 μl of kinase assay buffer (40 mM Tris pH 7.5, 2 mM dithiothreitol (DTT), 0.05% Bovine Serum Albumin, 5 mM MgCl2) containing Hpk1 protein was transferred to each well and incubated for 30-45 minutes at room temperature. The enzymatic reaction was started by adding 2 μl of kinase assay buffer containing 75 μM ATP. After 120 minutes, the reaction was stopped by adding 3 μl of ADP Glo™ reagent (Promega, V9101) and incubating 45 minutes at room temperature.

Hpk1, sequence (Q92918 whole entry): as the sequence (Q92918 whole entry, the tested form may be a part) above

Row | IC50 (Hpk1) [nM] | IC50 (full-length human Hpk1) [nM] | SMILES
1 | 282 | 6.61 | C[C@@H]1CCN[C@@H]1c1cc(-c2cnc(N)c(-c3ccncc3)c2)ccc1C1CCOCC1 (racemic) [Co. 10]
2 | 7590 | 117 | Nc1ncc(-c2ccc(C3CCOCC3)c(CN3CCCC3)c2)cc1-c1ccncc1 [Co. 108]
3 | 2240 | 43.7 | Nc1ncc(-c2ccc(C3CCOCC3)c([C@@H]3CCCN3)c2)cc1C1CCOCC1 [Co. 95]
4 | 5010 | 35.5 | Nc1ncc(-c2ccc(N3CCOCC3)c(C3CCCN3)n2)cc1-c1ccncc1 (stereo not drawn) [Co. 11]
5 | 3980 | 34.7 | N#Cc1cc(-c2cc(-c3ccc(C4CCOCC4)c([C@@H]4CCCN4)c3)cnc2N)ccn1 [Co. 61]
6 | 339 | 2.75 | CC(C)n1cc(-c2cc(-c3ccc(C4CCOCC4)c([C@@H]4CCCN4)c3)cnc2N)cn1 [Co. 22]
7 | 813 | 15.5 | Cn1cc(-c2cc(-c3ccc(C4CCOCC4)c([C@@H]4COCCN4)c3)cnc2N)cn1 [Co. 81]
8 | 4680 | 89.1 | CN(C)Cc1cc(-c2cnc(N)c(C(=O)NCCO)c2)ccc1C1CCOCC1 [Co. 110]
9 | 490 | 28.2 | Nc1ncc(-c2ccc(C3CCOCC3)c([C@@H]3CCCN3)c2)cc1-c1ccncc1Cl [Co. 30]
10 | 1860 | 19.5 | Nc1ncc(-c2ccc(C3CCS(=O)(=O)CC3)c([C@@H]3CCCN3)c2)cc1-c1ccnc(F)c1 [Co. 100]
11 | 339 | 9.33 | N#Cc1cc(-c2ccc(C3CCOCC3)c([C@@H]3CCCN3)c2)cnc1N [Co. 44]
12 | > 10000 | 295 | Nc1ncc(-c2ccc(C3CCOCC3)c([C@@H]3CCCN3)c2)cc1C1CCS(=O)(=O)CC1 [Co. 102]
13 | 1230 | 18.6 | Nc1ncc(-c2ccc(C3CCOCC3)c([C@H]3COCCCN3)c2)cc1-c1ccncc1 (single isomer, unassigned) [Co. 93b]
14 | 851 | 14.5 | Nc1ncc(-c2ccc(C3CCOCC3)c([C@@H]3COCCN3)c2)cc1-c1ccncc1 [Co. 80a]
15 | 5620 | 77.6 | Nc1ncc(-c2ccc(C3CCOCC3)c([C@@H]3CC(F)(F)CN3)c2)cc1-c1ccnc(F)c1 (single isomer, unassigned) [Co. 59]
16 | 1020 | 35.5 | CS(=O)(=O)N1CC=C(c2ccc(-c3cnc(N)c(-c4ccnc(F)c4)c3)cc2[C@@H]2CCCN2)CC1 [Co. 46]
17 | 126 | 8.71 | Nc1ncc(-c2ccc(C3CCOCC3)c([C@@H]3COCCN3)c2)cc1-c1ccnc(F)c1 [Co. 82]
18 | 1100 | 47.9 | COc1cc(-c2ccc(C3CCOCC3)c([C@@H]3COCCN3)c2)cnc1N [Co. 87]
19 | 2290 | 40.7 | CN(C)Cc1cc(-c2cnc(N)c(-c3ccncc3F)c2)ccc1C1CCOCC1 [Co. 72]
20 | 1410 | 6.31 | Cn1cc(-c2cc(-c3ccc(C4CCOCC4)c([C@@H]4CCCN4)c3)cnc2N)cn1 [Co. 68]

Row | IC50 (Hpk1) [nM] | IC50 (full-length human Hpk1) [nM] | SMILES
21 | 646 | 7.24 | Nc1ncc(-c2ccc(C3CCOCC3)c([C@@H]3CCCN3)c2)cc1Br [Co. 37]
22 | > 10000 | 8710 | Nc1ncc(-c2ccc(C3CCOCC3)c([C@H]3CC(F)(F)CN3)c2)cc1-c1ccnc(F)c1 (single isomer, unassigned) [Co. 58]
23 | 3720 | 42.7 | Nc1ncc(-c2ccc(C3CCOCC3)c([C@@H]3CCCN3)c2)cc1-c1cccnc1 [Co. 4]
24 | 4170 | 112 | Nc1ncc(-c2ccc(C3CCOCC3)c([C@@H]3COCCN3)c2)cc1F [Co. 88]
25 | 550 | 18.2 | CO[C@H]1CC[C@@H](c2ccc(-c3cnc(N)c(-c4ccnc(F)c4)c3)cc2[C@@H]2CCCN2)CC1 [Co. 51]
26 | > 10000 | 603 | Nc1ncc(-c2ccc(C3CCOCC3)c([C@H]3CSCCN3)c2)cc1-c1ccnc(F)c1 (single isomer, unassigned) [Co. 103b]
27 | > 10000 | 380 | Nc1ncc(-c2ccc(C3CCOCC3)c(CNC3COC3)c2)cc1-c1ccnc(F)c1 [Co. 105]
28 | 2510 | 24 | Nc1ncc(-c2ccc(C3=CCS(=O)(=O)CC3)c([C@@H]3CCCN3)c2)cc1-c1ccnc(F)c1 [Co. 49]
29 | 5620 | 53.7 | Nc1ncc(-c2ccc(C3CCOCC3)c([C@@H]3CCCN3)c2)cc1-c1cncnc1 [Co. 3]
30 | 851 | 21.4 | N#Cc1cc(-c2ccc(C3CCOCC3)c([C@@H]3COCCN3)c2)cnc1N [Co. 89]
31 | 479 | 25.1 | Cn1cc(-c2nc(-c3ccc(C4CCOCC4)c([C@@H]4COCCN4)c3)cnc2N)cn1 [Co. 84]
32 | 1320 | 25.1 | Nc1ncc(-c2ccc(C3=CCSCC3)c([C@@H]3CCCN3)c2)cc1-c1ccnc(F)c1 [Co. 48]
33 | 245 | 2.04 | Nc1ncc(-c2ccc(C3CCOCC3)c([C@@H]3CCCN3)c2)cc1-c1ccncn1 [Co. 26]
34 | 646 | 21.4 | Nc1ncc(-c2ccc(C3CCSCC3)c([C@@H]3CCCN3)c2)cc1-c1ccnc(F)c1 [Co. 99]
35 | 4570 | 162 | Nc1ncc(-c2ccc(C3CCOCC3)c([C@@H]3COCCCN3)c2)cc1-c1ccncc1 (single isomer, unassigned) [Co. 93a]
36 | > 10000 | 6920 | Nc1ncc(-c2ccc(C3CCOCC3)c([C@H]3C[S@+]([O-])CCN3)c2)cc1-c1ccnc(F)c1 (single isomer, unassigned) [Co. 15d]
37 | 1290 | 7.59 | Nc1ncc(-c2ccc(C3CCCCC3)c([C@@H]3CCCN3)c2)cc1-c1ccnc(F)c1 [Co. 38]
38 | > 10000 | 457 | Nc1ncc(-c2ccc(C3COC3)c([C@@H]3CCCN3)c2)cc1-c1ccnc(F)c1 [Co. 54]
39 | 1550 | 17.8 | Nc1ncc(-c2ccc(C3CCOCC3)c([C@@H]3CCCN3)c2)cc1-c1cnn2c1CCCC2 [Co. 18]
